Patent US6368598B1, “Drug complex for treatment of metastatic prostate cancer” (priority 1996, dated 2002)
Residues, ends and D or L forms follow the SMILES beside them. *: point of attachment. pNA = O=[N+]([O-])c1ccc(N*)cc1; MeOSuc = COC(=O)CCC(=O)*

Tests used:
[1] = after administration to a person; cited from earlier work
[2] = tested on: rat and human androgen independent prostate cancer cell lines; conditions: 500 nm thapsigargin, cited from earlier work
[3] = tested on: Ca++-ATPase pumps of the endoplasmic reticulum; conditions: cited from earlier work
PC3 cells = assay: Effect of TG and RT on clonogenic survival of PC3 cells; type: cell-based, human; conditions: for Surviving Fraction (SF) (PE treated/PE control): plated at 24 hours
Protocol: PC3 and DU-145 androgen-independent human prostate cancer cell lines obtained from the American Tissue Culture Collection (ATCC) are used for in vitro studies. Cells are grown as monolayer cultures in RPMI 1640 medium supplemented with 10% fetal bovine serum, 2 mM glutamine and antibiotics. Radiation survival curves and radiation-induced apoptotic DNA fragmentation patterns in these cell lines are already established in the laboratory. Cells are treated with this drug, carrier-peptide, or carrier-peptide-drug complex with or without radiation. After 24 hours, the cells are trypsinized and plated for clonogenic survival studies. Apoptotic response to the treatments is determined by: 1) agarose gel electrophoresis analysis of DNA fragmentation at 48 and 72 hours after treatment, 2) morphological observations after staining with DAPI, and 3) terminal deoxytransferase-mediated dUTP Nick End Labeling (TUNEL) assay.

[4] = tested on: human DU-145 prostate carcinoma xenograft; assay: Growth delay of human DU-145 prostate carcinoma xenograft in male SCID mice; type: in vivo
Protocol: Two human prostate carcinoma tumor lines grown as xenografts in male SCID mice are used: the human DU-145 prostate carcinoma which is not androgen dependent and the human LNCaP prostate carcinoma which produces PSA and has a well characterized androgen receptor and response to androgens. The drug complexes are administered up to maximally tolerated doses alone and in conjunction with fractionated radiation therapy (^137Cs Gamma Cell 40) delivered to the tumor bearing limb.
The progress of each tumor is assessed thrice weekly by caliper measurements until the tumors reach 2000 mm^3. Tumor growth delay is calculated as the number of days for each tumor to reach a volume of 500 mm^3 as compared to untreated controls. The efficacy of combination treatments is assessed using isobologram analysis for determination of additivity/synergy.
Male SCID mice bearing the human DU-145 prostate carcinoma Xenograft growing subcutaneously in a hind-limb were treated daily with TG (0.5 mg/kg) by IP injection from day 4-18 post tumor cell implantation. Some animal groups also received fractionated RT locally to the tumor bearing region on days 7-11 or days 7-11 and 14-18.

[5] = tested on: pumps of erythrocytes, plasma, or mitochondrial membranes; conditions: cited from earlier work
[6] = tested on: DU-145 prostate cancer cells; assay: Effect of TG and RT on proliferation of DU-145 prostate cancer cells (cell count, trypan blue); type: cell-based, human; conditions: for Total Number of Cells per Dish: counted at 48 hours
[7] = Cleavage in newborn calf serum; type: in vitro ADME
Protocol: (§1) A tyrosine tripeptide (compound 1 in FIG. 5) was prepared using methods known to those in the peptide chemistry art. It is known that PSA cleaves its para-nitroanilide (pNA) derivative at the tyrosine site (compound 2 in FIG. 5). (Christensson, A. et al., Eur. J Biochem., 194:755-763 (1990)). It is also known that the “released” pNA makes it possible to study this reaction colormetrically.

[8] = Cleavage in pooled human serum; type: in vitro ADME
Protocol: as §1

NCCCCNCCCF [N-3 fluoropropylputrescine]
distribution to prostate and bone relative to blood and muscle [1]: selectively distributed to prostate and bone

C/C=C(/C)C(=O)O[C@H]1C(C)=C2[C@H]([C@@H]1OC(=O)CCCCCCC)[C@@](C)(OC(C)=O)C[C@H](OC(=O)CCC)[C@@]1(O)[C@H]2OC(=O)[C@@]1(C)O [Thapsigargin]
apoptosis ([2]; within 72 to 96 hours): undergo apoptosis | clonogenic potential ([2]; within 72 to 96 hours): lose their clonogenic potential | intracellular Ca++ ([2]; lines with or without p53 expression): elevation of intracellular Ca^++ | inhibition of Ca++-ATPase pumps of the endoplasmic reticulum [3]: specifically inhibits | Surviving Fraction (SF) (PE treated/PE control) (PC3 cells; TG 20 nM, 0 Gy): 0.69 | NET survival (SF/TG toxicity) (PC3 cells; TG 20 nM, 2 Gy): 0.61 | Surviving Fraction (SF) (PE treated/PE control) (PC3 cells; TG 20 nM, 2 Gy): 0.42 | NET survival (SF/TG toxicity) (PC3 cells; TG 20 nM, 4 Gy): 0.33 | Surviving Fraction (SF) (PE treated/PE control) (PC3 cells; TG 20 nM, 4 Gy): 0.23 | Surviving Fraction (SF) (PE treated/PE control) (PC3 cells; TG 50 nM, 0 Gy): 0.80 | NET survival (SF/TG toxicity) (PC3 cells; TG 50 nM, 2 Gy): 0.49 | Surviving Fraction (SF) (PE treated/PE control) (PC3 cells; TG 50 nM, 2 Gy): 0.39 | NET survival (SF/TG toxicity) (PC3 cells; TG 50 nM, 4 Gy): 0.29 | Surviving Fraction (SF) (PE treated/PE control) (PC3 cells; TG 50 nM, 4 Gy): 0.23 | Surviving Fraction (SF) (PE treated/PE control) (PC3 cells; TG 100 nM, 0 Gy): 0.62 | NET survival (SF/TG toxicity) (PC3 cells; TG 100 nM, 2 Gy): 0.40 | Surviving Fraction (SF) (PE treated/PE control) (PC3 cells; TG 100 nM, 2 Gy): 0.25 | NET survival (SF/TG toxicity) (PC3 cells; TG 100 nM, 4 Gy): 0.30 | Surviving Fraction (SF) (PE treated/PE control) (PC3 cells; TG 100 nM, 4 Gy): 0.18 | Surviving Fraction (SF) (PE treated/PE control) (PC3 cells; TG 200 nM, 0 Gy): 0.58 | NET survival (SF/TG toxicity) (PC3 cells; TG 200 nM, 2 Gy): 0.43 | Surviving Fraction (SF) (PE treated/PE control) (PC3 cells; TG 200 nM, 2 Gy): 0.25 | NET survival (SF/TG toxicity) (PC3 cells; TG 200 nM, 4 Gy): 0.22 | Surviving Fraction (SF) (PE treated/PE control) (PC3 cells; TG 200 nM, 4 Gy): 0.13 | Surviving Fraction (SF) (PE treated/PE control) (PC3 cells; TG 400 nM, 0 Gy): 0.60 | NET survival (SF/TG toxicity) (PC3 cells; TG 400 nM, 2 Gy): 0.42 | Surviving Fraction (SF) (PE treated/PE control) (PC3 cells; TG 400 nM, 2 Gy): 0.25 | NET survival (SF/TG toxicity) (PC3 cells; TG 400 nM, 4 Gy): 0.22 | Surviving Fraction (SF) (PE treated/PE control) (PC3 cells; TG 400 nM, 4 Gy): 0.13 | clonogenic cell survival in vitro (result in words) (PC3 cells; summary of Table 2): inhibits clonogenic cell survival in vitro | tumor growth delay, combination with RT ([4]; TG 0.5 mg/kg daily IP day 4-18 with fractionated RT days 7-11): the independent effects of TG and RT were additive | tumor growth delay, combination with RT extended to 2 weeks ([4]; TG 0.5 mg/kg daily IP day 4-18 with fractionated RT days 7-11 and 14-18): the additional benefit of the TG administration was maintained | tumor growth delay ([4]; TG 0.5 mg/kg daily IP, day 4-18, alone, FIG. 1): produced a measurable tumor growth delay | inhibition of pumps of erythrocytes, plasma, or mitochondrial membranes [5]: not | Total Number of Cells per Dish ([6]; TG 20 nM, 0 Gy): 1.0 10^6 | Total Number of Cells per Dish ([6]; TG 20 nM, 2 Gy 2 hours after TG): 0.8 10^6 | Total Number of Cells per Dish ([6]; TG 20 nM, 4 Gy 2 hours after TG): 0.3 10^6 | Total Number of Cells per Dish ([6]; TG 20 nM, 8 Gy 2 hours after TG): 0.4 10^6 | Total Number of Cells per Dish ([6]; TG 100 nM, 0 Gy): 0.7 10^6 | Total Number of Cells per Dish ([6]; TG 100 nM, 2 Gy 2 hours after TG): 0.5 10^6 | Total Number of Cells per Dish ([6]; TG 100 nM, 4 Gy 2 hours after TG): 0.5 10^6 | Total Number of Cells per Dish ([6]; TG 100 nM, 8 Gy 2 hours after TG): 0.4 10^6 | Total Number of Cells per Dish ([6]; TG 400 nM, 0 Gy): 0.7 10^6 | Total Number of Cells per Dish ([6]; TG 400 nM, 2 Gy 2 hours after TG): 0.4 10^6 | Total Number of Cells per Dish ([6]; TG 400 nM, 4 Gy 2 hours after TG): 0.3 10^6 | Total Number of Cells per Dish ([6]; TG 400 nM, 8 Gy 2 hours after TG): 0.3 10^6 | cell proliferation in vitro (result in words) ([6]; summary of Table 1): inhibits cell proliferation in vitro

COC(=O)CCC(=O)N[C@@H](CCCNC(=N)N)C(=O)N1CCC[C@H]1C(=O)N[C@@H](Cc1ccc(O)cc1)C(=O)Nc1ccc([N+](=O)[O-])cc1 [compound 2] (MeOSuc-Arg-Pro-Tyr-pNA)
cleavage, release of pNA [7]: neither newborn calf serum, nor pooled human serum cleaved | cleavage, release of pNA [8]: neither newborn calf serum, nor pooled human serum cleaved
